Among the data in PubChem BioAssay AID212 (DTP/NCI, 2004) are T/C values, retold here.

In this assay the test system is BDF1 mice, colon carcinoma 38 sc, T/C %. The assay is described as follows: NCI In Vivo Anticancer Drug Screen. Data for tumor model Colon Carcinoma 38 (subcutaneous) in B6D2F1 (BDF1) mice. In a few lines: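 Ratio of survival or tumor size, compound-treated animals relative to vehicle controls, in tumor-bearing mice.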
Setting [1] is: endpoint: median tumor weight (est.), dose: 12.5 mg/kg/injection, schedule: Q07DX002 (ip), vehicle: saline, higher = larger tumour.
Where [2] appears, read: endpoint: median tumor weight (est.), dose: 25.0 mg/kg/injection, schedule: Q07DX002 (ip), vehicle: saline, higher = larger tumour.
The mark [3] stands for this setting: endpoint: median tumor weight (est.), dose: 50.0 mg/kg/injection, schedule: Q07DX002 (ip), vehicle: saline, higher = larger tumour.
The mark [4] stands for this setting: endpoint: median tumor weight (est.), dose: 100.0 mg/kg/injection, schedule: Q07DX002 (ip), vehicle: saline, higher = larger tumour.
Where [5] appears, read: endpoint: median tumor weight (est.), dose: 12.5 mg/kg/injection, schedule: Q07DX002 (ip), vehicle: Klucel (hydroxypropylcellulose) (HPC), higher = larger tumour.
Setting [6] is: endpoint: median tumor weight (est.), dose: 100.0 mg/kg/injection, schedule: Q07DX002 (ip), vehicle: Klucel (hydroxypropylcellulose) (HPC), higher = larger tumour.
Setting [7] is: endpoint: median tumor weight (est.), dose: 200.0 mg/kg/injection, schedule: Q07DX002 (ip), vehicle: Klucel (hydroxypropylcellulose) (HPC), higher = larger tumour.
The mark [8] stands for this setting: endpoint: median tumor weight (est.), dose: 50.0 mg/kg/injection, schedule: Q07DX002 (ip), vehicle: Klucel (hydroxypropylcellulose) (HPC), higher = larger tumour.

Where “and” joins values, the source holds several entries; their conditions need not be identical. Identical values can stand only once. Inconclusive results are not listed.

On to `CC[C@@]1(O)C[C@H](OC2CC(N(C)C)C(OC3CC(O)C(OC4CCC(=O)C(C)O4)C(C)O3)C(C)O2)c2c(cc3c(c2O)C(=O)c2c(O)cccc2C3=O)[C@H]1C(=O)OC` (stereo partly specified), for which the T/C runs as follows: (endpoint: median survival time, dose: 5.3 mg/kg/injection, schedule: Q07DX002 (iv), vehicle: water, higher = longer survival) 114 % of control; (endpoint: median survival time, dose: 8.3 mg/kg/injection, schedule: Q07DX002 (iv), vehicle: water, higher = longer survival) 105 % of control; (endpoint: median survival time, dose: 20.0 mg/kg/injection, schedule: Q07DX002 (iv), vehicle: water, higher = longer survival) 115 % of control; (endpoint: median tumor weight (est.), dose: 0.75 mg/kg/injection, schedule: Q07DX002 (ip), vehicle: water, higher = larger tumour) 67 % of control; (endpoint: median tumor weight (est.), dose: 0.75 mg/kg/injection, schedule: Q07DX003 (ip), vehicle: water, higher = larger tumour) 98 % of control; (endpoint: median tumor weight (est.), dose: 1.5 mg/kg/injection, schedule: Q07DX003 (ip), vehicle: water, higher = larger tumour) 123 % of control. Further, the T/C (endpoint: median tumor weight (est.), dose: 3.0 mg/kg/injection, schedule: Q07DX003 (ip), vehicle: water, higher = larger tumour) was 103 % of control; the T/C (endpoint: median tumor weight (est.), dose: 6.0 mg/kg/injection, schedule: Q07DX003 (ip), vehicle: water, higher = larger tumour) is 75 % of control; the T/C (endpoint: median tumor weight (est.), dose: 12.0 mg/kg/injection, schedule: Q07DX003 (ip), vehicle: water, higher = larger tumour) is 40 % of control.

Turning to `CCN=C=NCCCN(C)C`, the T/C under setting [1] is 118 % of control, the T/C under setting [2] was 103 % of control, the T/C under setting [3] was 120 % of control and the T/C under setting [4] was 100 % of control.

Turning to `CN(C)c1ccc2c(NCCCCCCNc3ccnc4cc(N(C)C)ccc34)ccnc2c1`, the T/C by setting is: (endpoint: median tumor weight (est.), dose: 3.12 mg/kg/injection, schedule: Q07DX002 (ip), vehicle: distilled water + Tween-80 + alcohol, higher = larger tumour) 81 % of control; (endpoint: median tumor weight (est.), dose: 6.25 mg/kg/injection, schedule: Q07DX002 (ip), vehicle: distilled water + Tween-80 + alcohol, higher = larger tumour) 77 % of control; (endpoint: median tumor weight (est.), dose: 12.5 mg/kg/injection, schedule: Q07DX002 (ip), vehicle: distilled water + Tween-80 + alcohol, higher = larger tumour) 62 % of control; (endpoint: median tumor weight (est.), dose: 25.0 mg/kg/injection, schedule: Q07DX002 (ip), vehicle: distilled water + Tween-80 + alcohol, higher = larger tumour) 62 % of control; (endpoint: median tumor weight (est.), dose: 50.0 mg/kg/injection, schedule: Q07DX002 (ip), vehicle: distilled water + Tween-80 + alcohol, higher = larger tumour) 47 % of control; (endpoint: median tumor weight (est.), dose: 100.0 mg/kg/injection, schedule: Q07DX002 (ip), vehicle: distilled water + Tween-80 + alcohol, higher = larger tumour) 20 % of control.

For `Nc1nc2c(ncn2C2OC(CO)C(O)C2N)c(=O)[nH]1` (stereo unspecified), the T/C runs as follows: (endpoint: median tumor weight (est.), dose: 50.0 mg/kg/injection, schedule: Q07DX002 (ip), vehicle: saline with Tween-80, higher = larger tumour) 73 % of control; (endpoint: median tumor weight (est.), dose: 100.0 mg/kg/injection, schedule: Q07DX002 (ip), vehicle: saline with Tween-80, higher = larger tumour) 74 % of control.

Turning to `CNC(=O)OCc1c(COC(=O)NC)c(-c2ccc(Cl)c(Cl)c2)n2c1Cc1ccccc1C2`, the T/C runs as follows: (endpoint: median tumor weight (est.), dose: 50.0 mg/kg/injection, schedule: Q07DX002 (ip), vehicle: distilled water + Tween-80, higher = larger tumour) 86 % of control; (endpoint: median tumor weight (est.), dose: 100.0 mg/kg/injection, schedule: Q07DX002 (ip), vehicle: distilled water + Tween-80, higher = larger tumour) 81 % of control; (endpoint: median tumor weight (est.), dose: 200.0 mg/kg/injection, schedule: Q07DX002 (ip), vehicle: distilled water + Tween-80, higher = larger tumour) 65 % of control.

With `O=C(Nc1ccc(Cl)c(Cl)c1)Nc1c(Oc2ccc(Cl)c(Cl)c2)ccc(Cl)c1S(=O)(=O)O`, the T/C by setting is: (endpoint: median tumor weight (est.), dose: 6.25 mg/kg/injection, schedule: Q07DX002 (ip), vehicle: Klucel (hydroxypropylcellulose) (HPC), higher = larger tumour) 167 % of control; under setting [5], 103 % of control; under setting [6], 119 % of control; under setting [7], 66 % of control.

Regarding `Cc1cc2nc3[nH]c4ccccc4c3nc2cc1C`, the T/C under setting [5] was 164 % of control; the T/C under setting [8] was 199 % of control; the T/C under setting [6] is 172 % of control; the T/C under setting [7] is 220 % of control; the T/C (endpoint: median tumor weight (est.), dose: 400.0 mg/kg/injection, schedule: Q07DX002 (ip), vehicle: Klucel (hydroxypropylcellulose) (HPC), higher = larger tumour) is 223 % of control.

On to `O=C1C2CC=CCC2C(=O)N1SC(Cl)(Cl)Cl` (stereo unspecified), for which the T/C was 107 % of control (endpoint: median tumor weight (est.), dose: 3.12 mg/kg/injection, schedule: Q07DX002 (ip), vehicle: saline with Tween-80, higher = larger tumour); 110 % of control (endpoint: median tumor weight (est.), dose: 6.25 mg/kg/injection, schedule: Q07DX002 (ip), vehicle: saline with Tween-80, higher = larger tumour); 99 % of control (endpoint: median tumor weight (est.), dose: 12.5 mg/kg/injection, schedule: Q07DX002 (ip), vehicle: saline with Tween-80, higher = larger tumour); 84 % of control (endpoint: median tumor weight (est.), dose: 25.0 mg/kg/injection, schedule: Q07DX002 (ip), vehicle: saline with Tween-80, higher = larger tumour).

On to `COc1ccc(/C=C/C(=O)c2cc(C(=O)O)c(OC)cc2OC)cc1OC`, for which the T/C by setting is: under setting [1], 94 % of control and 103 % of control; under setting [2], 88 % of control and 94 % of control; under setting [3], 114 % of control and 124 % of control; under setting [4], 88 % of control and 96 % of control; (endpoint: median tumor weight (est.), dose: 400.0 mg/kg/injection, schedule: Q07DX002 (ip), vehicle: saline, higher = larger tumour) 93 % of control and 103 % of control.

As to `CC12CCC3C(CCC4CC(OC(=O)Cc5ccc(N(CCCl)CCCl)cc5)CCC43C)C1CCC(=O)N2` (stereo unspecified), the T/C is 121 % of control (endpoint: median tumor weight (est.), dose: 1.5 mg/kg/injection, schedule: Q07DX002 (ip), vehicle: saline with Tween-80, higher = larger tumour); 77 % of control and 91 % of control (endpoint: median tumor weight (est.), dose: 3.0 mg/kg/injection, schedule: Q07DX002 (ip), vehicle: saline with Tween-80, higher = larger tumour); 47 % of control and 48 % of control (endpoint: median tumor weight (est.), dose: 6.0 mg/kg/injection, schedule: Q07DX002 (ip), vehicle: saline with Tween-80, higher = larger tumour); 27 % of control and 33 % of control (endpoint: median tumor weight (est.), dose: 24.0 mg/kg/injection, schedule: Q07DX002 (ip), vehicle: saline with Tween-80, higher = larger tumour).

In the case of `O=C(O)Cc1cccc2c(=O)cc(-c3ccccc3)oc12`, the T/C is 124 % of control (endpoint: median tumor weight (est.), dose: 47.3 mg/kg/injection, schedule: Q03HX004 (ip), vehicle: clinical formulation, higher = larger tumour); 79 % of control under setting [8]; 46 % of control (endpoint: median tumor weight (est.), dose: 50.0 mg/kg/injection, schedule: Q07DX002 (ip), vehicle: sodium bicarbonate, higher = larger tumour); 89 % of control (endpoint: median tumor weight (est.), dose: 63.0 mg/kg/injection, schedule: Q03HX004 (ip), vehicle: clinical formulation, higher = larger tumour); 70 % of control (endpoint: median tumor weight (est.), dose: 63.0 mg/kg/injection, schedule: Q07DX002 (ip), vehicle: sodium bicarbonate, higher = larger tumour); 120 % of control (endpoint: median tumor weight (est.), dose: 63.0 mg/kg/injection, schedule: Q07DX002 (iv), vehicle: sodium bicarbonate, higher = larger tumour). Further, the T/C (endpoint: median tumor weight (est.), dose: 84.0 mg/kg/injection, schedule: Q03HX004 (ip), vehicle: clinical formulation, higher = larger tumour) was 19 % of control; the T/C (endpoint: median tumor weight (est.), dose: 84.0 mg/kg/injection, schedule: Q06HX002 (ip), vehicle: clinical formulation, higher = larger tumour) was 80 % of control; the T/C (endpoint: median tumor weight (est.), dose: 84.0 mg/kg/injection, schedule: Q07DX002 (ip), vehicle: saline, higher = larger tumour) was 103 % of control; the T/C (endpoint: median tumor weight (est.), dose: 84.0 mg/kg/injection, schedule: Q07DX002 (ip), vehicle: sodium bicarbonate, higher = larger tumour) is 46 % of control; the T/C (endpoint: median tumor weight (est.), dose: 84.0 mg/kg/injection, schedule: Q07DX002 (iv), vehicle: sodium bicarbonate, higher = larger tumour) was 122 % of control; the T/C under setting [6] was 4 % of control. Further, the T/C runs as follows: (endpoint: median tumor weight (est.), dose: 100.0 mg/kg/injection, schedule: Q07DX002 (ip), vehicle: sodium bicarbonate, higher = larger tumour) 73 % of control; (endpoint: median tumor weight (est.), dose: 112.0 mg/kg/injection, schedule: Q01DX001 (ip), vehicle: clinical formulation, higher = larger tumour) 72 % of control; (endpoint: median tumor weight (est.), dose: 112.0 mg/kg/injection, schedule: Q06HX002 (ip), vehicle: clinical formulation, higher = larger tumour) 29 % of control; (endpoint: median tumor weight (est.), dose: 112.0 mg/kg/injection, schedule: Q07DX002 (ip), vehicle: clinical formulation, higher = larger tumour) 44 % of control; (endpoint: median tumor weight (est.), dose: 112.0 mg/kg/injection, schedule: Q07DX002 (ip), vehicle: saline, higher = larger tumour) 13 % of control; (endpoint: median tumor weight (est.), dose: 112.0 mg/kg/injection, schedule: Q07DX002 (ip), vehicle: sodium bicarbonate, higher = larger tumour) 90 % of control. Besides, the T/C (endpoint: median tumor weight (est.), dose: 112.0 mg/kg/injection, schedule: Q07DX002 (iv), vehicle: sodium bicarbonate, higher = larger tumour) is 100 % of control; the T/C (endpoint: median tumor weight (est.), dose: 150.0 mg/kg/injection, schedule: Q01DX001 (ip), vehicle: clinical formulation, higher = larger tumour) is 22 % of control; the T/C (endpoint: median tumor weight (est.), dose: 150.0 mg/kg/injection, schedule: Q07DX002 (ip), vehicle: saline, higher = larger tumour) is 2 % of control; the T/C (endpoint: median tumor weight (est.), dose: 150.0 mg/kg/injection, schedule: Q07DX002 (ip), vehicle: sodium bicarbonate, higher = larger tumour) was 67 % of control; the T/C (endpoint: median tumor weight (est.), dose: 150.0 mg/kg/injection, schedule: Q07DX002 (iv), vehicle: sodium bicarbonate, higher = larger tumour) was 15 % of control; the T/C (endpoint: median tumor weight (est.), dose: 200.0 mg/kg/injection, schedule: Q07DX002 (ip), vehicle: sodium bicarbonate, higher = larger tumour) was 42 % of control. Besides, under “endpoint: median tumor weight (est.), dose: 267.0 mg/kg/injection, schedule: Q07DX002 (ip), vehicle: saline, higher = larger tumour”, the T/C is 1 % of control.
